From patent publication EP1283052A1, “Pharmaceutical composition containing caspase-8 and /or caspase-9 useful for overcoming glucocorticoid- and cancer therapy-induced apoptosis of tumours” (Deutsches Krebsforschungszentrum Stiftung des öffentlichen …, priority 2001, dated 2003)

Test system: P5 cells
Experiment: P5 xenografts in nude mice, intratumoural therapy, tumour volume
Assay type: in vivo
Conditions: Fig. 7
Description: P5 cells were injected subcutaneously in nude mice. At a tumour volume of 500 mm^3 therapy was started (day 0) and repeated at day 2 and 12 as indicated by arrows. A total volume of 100 µl in PBS was injected intratumoural containing liposomes and cisplatin (5mg/kg), or liposomes with cisplatin and a mixture of recombinant caspase-8 and -9 proteins (10 U each) and pcDNA3caspase-8 and pcDNA3caspase-9 expression vectors (10 µg each) in the absence (CIS) or presence of DEX (DEX/CIS), (DEX/CIS/CASPASES) in the drinking water (0.28 mg/L). As controls, tumour growth of xenografts from untreated mice (CO) or from mice which received liposomes and empty pcDNA3 expression vector only (CO/Liposomes) was determined. The tumour volume in each animal was measured every second day for a period of 16 days. […]
• (A) Cell culture. […] The mice were given 0.28 mg/L DEX in drinking water, and the amount of water consumed was monitored. […] The tumour volumes were measured using callipers, and calculated using, as an approximation, the formula for volume of a hemi-ellipsoid: π(width^2 x length)/6. […] Early apoptotic changes were identified by staining of cells with fluoresceinthiocyanate (FITC)-conjugated annexin V and propidium iodide (Becton Dickinson, Heidelberg, Germany) and analysed by flow cytometry (FACScan, Becton Dickinson) as described (Herr et al., EMBO J. 16 (1997), 6200-6208) • (E) Immunohistochemistry. […]

N.N.[Cl][Pt][Cl] [cisplatin]
tumour growth (cisplatin 5mg/kg with liposomes intratumoural, day 0, 2 and 12, initial phase): initially reduced | tumour growth (cisplatin-treated tumours at day 10 after treatment): developed resistance and started to grow
